Data as given in patent publication US7282507B2, “Indole derivatives as selective androgen receptor modulators (SARMS)” (Janssen Pharmaceutica N.V., priority 2004, dated 2007).
“And” between values parts separate entries of the source, which are not always exact repeats. Identical values can stand only once.

Columns and labels:
[1] = target: T1, androgen receptor (rat ventral prostate cytosol) (Rattus norvegicus, UniProt P15207); assay: Androgen Receptor Binding Using Rat Ventral Prostate Cytosol; conditions: for IC50: read-out: IC50 (nM), Androgen Receptor Binding (Rat Cytosol)
T1 construct: from tissue; host or cells: ventral prostate cytosol of castrated male Sprague Dawley or Wistar rats
T1 sequence (P15207 1-902): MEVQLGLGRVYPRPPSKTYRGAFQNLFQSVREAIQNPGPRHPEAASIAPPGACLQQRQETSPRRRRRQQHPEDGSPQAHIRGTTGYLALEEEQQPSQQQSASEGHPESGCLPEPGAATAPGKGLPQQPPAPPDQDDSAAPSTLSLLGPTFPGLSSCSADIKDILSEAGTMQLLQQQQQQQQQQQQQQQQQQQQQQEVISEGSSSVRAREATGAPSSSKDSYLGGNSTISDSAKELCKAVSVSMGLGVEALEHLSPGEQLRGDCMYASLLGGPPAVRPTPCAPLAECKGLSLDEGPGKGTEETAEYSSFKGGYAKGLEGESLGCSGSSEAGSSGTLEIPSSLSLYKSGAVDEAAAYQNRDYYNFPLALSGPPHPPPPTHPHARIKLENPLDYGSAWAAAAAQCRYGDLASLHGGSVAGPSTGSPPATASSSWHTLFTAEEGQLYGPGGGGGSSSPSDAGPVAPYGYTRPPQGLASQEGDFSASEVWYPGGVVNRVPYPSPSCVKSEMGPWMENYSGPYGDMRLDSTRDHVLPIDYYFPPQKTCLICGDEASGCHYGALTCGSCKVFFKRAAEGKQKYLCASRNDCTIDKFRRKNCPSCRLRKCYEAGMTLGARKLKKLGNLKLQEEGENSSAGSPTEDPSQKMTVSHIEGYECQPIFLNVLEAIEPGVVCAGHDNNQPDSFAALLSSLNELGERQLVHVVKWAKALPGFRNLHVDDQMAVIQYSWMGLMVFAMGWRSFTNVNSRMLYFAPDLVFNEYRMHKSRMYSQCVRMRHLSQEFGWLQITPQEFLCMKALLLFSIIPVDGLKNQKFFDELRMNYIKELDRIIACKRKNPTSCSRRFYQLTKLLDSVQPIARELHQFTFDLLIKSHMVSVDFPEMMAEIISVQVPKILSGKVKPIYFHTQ
Description: The assay was run on a 96 well plate with each well filled with a total reaction volume 150 μL, of a solution containing 5 pmol androgen receptor LBD (Panvera) or 30 μL of freshly prepared rat cytosol, 0.5 nM [^3H] […] (TED buffer contains 10 mM Tris.HCl pH 7.4, 1 mM sodium molybdate, 1.5 mM EDTA, 1 mM DTT and 10% (v/v) glycerol.)
On day one, the solution containing receptor, tracer and TED buffer was distributed into a 96 well plate. Diluted test compound or control vehicle was then added to individual wells and the plate incubated at 4° C. overnight.
On day two, to each well was then added 20 μL human γ-globulin (ICN 823102), prepared at 25 mg/ml in TE pH 8.0, and 55 μL 40% polyethylene glycol 8000 (J T Baker U222-08), prepared in TE pH 8.0. The plate was incubated at 4° C. for 60 minutes. During incubation, the harvester was rinsed with 10% PEG 8000, prepared in TE pH 8.0, and a GF/C Unifilter-96 was pre-wet with 10% PEG. The binding reaction was filtered, the retentate was washed three times with 10% PEG and dried under vacuum for a couple of minutes, then dried at 50° C. for 5 min and the plate was bottom sealed. Next, 25 μL of Microscint-20 (Packard) was added to the filter wells and the plate was top sealed. The plate wells were then counted on a TopCount (Packard).
Rat Prostate Cytosol Preparation:
Male Sprague Dawley or Wistar rats (Charles River, 200-300 g) were used for each preparation. The day before preparing the cytosol, the rats were castrated using standard surgical procedures.
The rats were euthanized by carbon dioxide asphyxiation. The rat prostates were quickly removed and placed on ice in pre-chilled, pre-weighed 50 mL plastic tubes. No more than five prostates were placed into one tube. The tubes were then weighed and the prostate tissue wet weights calculated.
To the chilled prostate tissue was then added […] of chilled homogenization buffer. The homogenization buffer was freshly prepared by mixing 10 mM Tris.HCl, pH 7.4, 1 mM sodium molybdate, 1.5 mM EDTA, 1 mM dithiothreitol, 10% (v/v) glycerol and 1% protease inhibitor cocktail (Sigma P 8340).
The prostate tissue was homogenized in a cold room using a pre-chilled Polytron PT3000 homogenizer (Brinkmann). Homogenization was performed at a speed setting of 20, three times for 10 sec bursts. The tubes containing the prostate tissue was kept on ice while homogenizing. The homogenate was allowed to rest on ice for 20 sec between bursts.
The homogenate was then placed into pre-chilled 3 mL polycarbonate ultracentrifuge tubes and centrifuged in the TLA-100 rotor of a TL-100 ultracentrifuge for 12 min at 100,000 rpm at 4° C. The resulting supernatant was stored in 1 mL aliquots at −80° C. until needed.
Binding to the androgen receptor was determined according to the protocol described in Example 86 using the above prepared rat cytosol.
% Inhibition was determined by testing dilutions of the test compound (usually duplicates of 10 μM) in the binding assay. Counts per well were measured and percents of inhibition determined. […] Counts per well were measured and IC50s determined by linear regression.

[2] = target: T2, androgen receptor (AdEasy+rAR, L929 cells) (Rattus norvegicus, UniProt P15207); assay: L929 Androgen Receptor Functional Assay, Adenovirus Transduction; assay type: cell-based; conditions: for % Activity, L929 androgen receptor functional assay / EC50: agonist testing; for inhibition at 3 µM: L929, antagonist testing with R1881, 3000 nM; for IC50: antagonist testing with R1881; for % Inhibition, L929 androgen receptor functional assay: antagonist testing with R1881, 3000 nM
T2 construct: expressed in transfected cells; host or cells: L929 cells transduced with adenovirus AdEasy+rAR
T2 sequence (P15207 1-902): T1 sequence (P15207 1-902)
Description: L929 cells were plated in 96-well plates at 20,000 cells per well, in DMEM/F12 (GIBCO) containing 10% (v/v) charcoal-treated fetal bovine serum (Hyclone) and lacking phenol red. The plates were then incubated overnight at 37° C. in 5% (v/v) humidified CO2.
Test compound dilutions were prepared in 100% (v/v) DMSO, if necessary. Each dilution was made to 1250× the final desired assay concentration.
First, 2 mL of DMEM/F12 lacking phenol red was pipetted into the wells of a 2-mL 96-well assay block. Next, 4 μL of the 1250× test compound dilutions were pipetted into each well of the assay block. The mixtures within the well were then carefully mixed by pipette.
In a 15 mL or 50 mL sterile centrifuge tube, a 2.5 nM (2.5×) dilution of R1881 (methyl-trienolone) in DMEM/F12 lacking phenol red was prepared.
In a second 15 mL or 50 mL centrifuge tube a solution containing an equal volume of DMEM to the first and an equal volume of 100% (v/v) DMSO to the volume of R1881 used in the first tube was prepared.
In a 15 mL or 50 mL sterile centrifuge tube, a dilution in DMEM/F12 of the adenovirus AdEasy+rAR at an moi of 1:500 per well was prepared.
The medium was removed from the 96-well plates by inversion and dried, inverted, very briefly. As soon as possible after medium removal, 40 μL of the diluted unlabeled test compound was added to each well, in duplicate. To each well designated for antagonist testing was added 40 μL of the 2.5 nM R1881 dilution to the wells for antagonist testing. To each well designated for agonist testing was added 40 μL of the DMSO dilution. Then 20 μL of the diluted adenovirus were added to all wells. The plates were incubated for 48 hours at 37° C. in 5% (v/v) humidified CO2.
To each well was added 100 μL of Steady-Glo luciferase assay substrate (Promega) and the plates were placed on a rotary shaker for 1 min. The plates were then incubated at room temperature in the dark for one hour. The contents of each well were then transferred to a white microtiter plate (Packard) and read on a Luminoskan Ascent (Thermo Lab Systems).
L929 AR percent activity was determined by testing dilutions of the test compound using a concentration of 3000 nM unless otherwise noted. L929 percent inhibition was determined by testing dilutions of the test compound using a concentration of 3000 nM. […] Luciferase activity per well were measured and EC50s and IC50s determined by linear regression.

[3] = system: testosterone-enhanced ventral prostate and seminal vesicle weights; assay: Ventral Prostate and Seminal Vesicle Weight in vivo Assay; set-up: species or system rat; conditions: immature castrated male Sprague Dawley rats, once daily for five days, usually orally 40 mg/kg, with testosterone propionate 2 mg/kg s.c. Note: key: 'active' if the non weight adjusted prostate weight was ≦40 mg or the % Inhibition prostate weight, body weight adjusted was ≧40% @ 2 mg/day dosage; ID50's, if determined, of ≦15 mg/day also indicated an 'active' compound; listed herein as 'inactive' as they did not meet the specified criteria defined above.
Description: Immature (approximately 50 g) castrated male Sprague Dawley rats (Charles River) were treated once daily for five days with test compound (usually given orally at 40 mg/kg in a volume of 0.3 mL, in 30% cyclodextrin or 0.5% methylcellulose vehicle) and with testosterone propionate (given subcutaneously by injection at the nape of the neck at 2 mg/kg, in a volume of 0.1 mL in sesame oil). On the sixth day, the rats were euthanized by asphyxiation in carbon dioxide. Ventral prosatates and seminal vesicles were removed and their wet weights determined.
A test compound was said to be “active” if the non weight adjusted prostate weight was ≦40 mg or the % Inhibition prostate weight, body weight adjusted was ≧40% @ 2 mg/day dosage.

SMILES | % Activity, L929 androgen receptor functional assay ([2]; 3000 nM) [%] | active / inactive: inhibition of testosterone-enhanced prostate weight [3] | also measured
O=[N+]([O-])c1cc2cc(C3(O)CCN(Cc4ccc(Cl)cc4)CC3)[nH]c2cc1C(F)(F)F [Compound 40] |  |  | % Inhibition, Androgen Receptor Binding (Rat Cytosol) ([1]; Concentration 1000 nM, 1 µM): −2.5%; IC50 [1]: 3800 nM
CCSCC(C)(O)c1cc2cc([N+](=O)[O-])c(C(F)(F)F)cc2[nH]1 (racemic) [Compound 221] | −1 | inactive | 
CC[S+]([O-])CC(C)(O)c1cc2cc(C(F)(F)F)c([N+](=O)[O-])cc2[nH]1 (mixture of isomers) [Compound 230] | 0 | active | 
CSC(C)(O)c1cc2cc([N+](=O)[O-])c(C(F)(F)F)cc2[nH]1 (racemic) [Compound 267] |  | inactive | % Activity, L929 androgen receptor functional assay ([2]; 3000 nM, 3 µM): −5% and 0%
CS(=O)(=O)c1ccc(CN2CCC(O)(c3cc4cc(Cl)c(C(F)(F)F)cc4[nH]3)CC2)cc1 [Compound 34] |  |  | % Inhibition, Androgen Receptor Binding (Rat Cytosol) ([1]; Concentration 1000 nM): 18%; IC50 [1]: 5700 nM
O=[N+]([O-])c1cc2cc(C3(O)CCN(Cc4ccc(F)cc4)CC3)[nH]c2cc1C(F)(F)F [Compound 37] |  |  | inhibition at 1 µM ([1]; Concentration 1000 nM, read-out: % Inhibition, Androgen Receptor Binding (Rat Cytosol)): 25%; IC50 [1]: 3600 nM
CC[S+]([O-])CC(O)c1cc2cc([N+](=O)[O-])c(C(F)(F)F)cc2[nH]1 (mixture of isomers) [Compound 180] | 2 | inactive | 
COc1cccc(CN2CCC(O)(c3cc4cc([N+](=O)[O-])c(C(F)(F)F)cc4[nH]3)CC2)c1 [Compound 38] |  |  | % Inhibition, Androgen Receptor Binding (Rat Cytosol) ([1]; Concentration 1000 nM, 1 µM): 16%; IC50 [1]: 8800 nM
CC(O)(CS(=O)(=O)CC(F)(F)F)c1[nH]c2cc([N+](=O)[O-])c(C(F)(F)F)cc2c1Cl (stereo not drawn) [Compound 207] |  | active | inhibition at 3 µM [2]: 101%; EC50 [2]: > 8000 nM; % Activity, L929 androgen receptor functional assay ([2]; 3000 nM, 3 µM): 1% and −1%; IC50 [2]: 492 nM; % Inhibition, L929 androgen receptor functional assay [2]: 101%
Cc1ccc(CN2CCC(O)(c3cc4cc(Cl)c(C(F)(F)F)cc4[nH]3)CC2)cc1 [Compound 30] |  |  | % Inhibition, Androgen Receptor Binding (Rat Cytosol) ([1]; Concentration 1000 nM): −7.7%; IC50 [1]: 4100 nM
CC(O)(CSCc1ccco1)c1cc2cc([N+](=O)[O-])c(C(F)(F)F)cc2[nH]1 (racemic) [Compound 198] | 7 | inactive | 
CCSCC(C)(O)c1cc2cc(C#N)c(C(F)(F)F)cc2[nH]1 (stereo not drawn) [Compound 218, 2-(2-Ethylsulfanyl-1-hydroxy-1-methyl-ethyl)-6-trifluoromethyl-1H-indole-5-carbonitrile] | 0 | inactive | % Inhibition, L929 androgen receptor functional assay ([2]; 3 µM): 62%
CCCSCC(C)(O)c1cc2cc(Cl)c(C(F)(F)F)cc2[nH]1 (racemic) [Compound 196] | 13 | inactive | 
CC(O)(CS(=O)(=O)CC(F)(F)F)c1cc2cc([N+](=O)[O-])c(C(F)(F)F)cc2[nH]1 (racemic) [Compound 208] | 1 | active | 
CCS(=O)(=O)CC(C)(O)c1cc2cc(C#N)c(C(F)(F)F)cc2n1C (racemic) [Compound 240] | 0 | inactive | 
CCSCC(O)(CC)c1cc2cc(C#N)c(C(F)(F)F)cc2[nH]1 (stereo not drawn) [Compound 223] |  | active | inhibition at 3 µM [2]: 100%; EC50 [2]: > 8000 nM; % Activity, L929 androgen receptor functional assay ([2]; @ 8000 nM): 0 @ 8000 nM %; IC50 [2]: 277 nM
CSCCC(C)(O)c1cc2cc(Cl)c(C(F)(F)F)cc2[nH]1 (racemic) [Compound 51] | 2 | inactive | 
